Source: ChEMBL document CHEMBL1201862, “PubChem BioAssay data set” (2004)
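Grown in 96-well plates, cells were treated for 48 hours with each compound at five concentrations. Insufficient inhibition: endpoint recorded as highest concentration tested. GI50 = concentration required for 50% inhibition of growth.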 The source made the active and inactive calls. No stated cut-off is given here; in the data, active = GI50 up to about 1.1 µM and inactive = higher.

Legend:
Test in all cases: NCI anticancer screen, dose series, 48 h
[1] = tested on: SK-MEL-28
[2] = tested on: SK-OV-3
[3] = tested on: NCI-H460
[4] = tested on: DMS-114
[5] = tested on: SNB-78
[6] = tested on: SF-295
[7] = tested on: OVCAR-5
[8] = tested on: CCRF-CEM
[9] = tested on: UACC-62
[10] = tested on: TK-10
[11] = tested on: RXF 631
[12] = tested on: HOP-62
[13] = tested on: IGROV-1
[14] = tested on: SR
[15] = tested on: OVCAR-8
[16] = tested on: UACC-257
[17] = tested on: DMS-273
[18] = tested on: HT-29
[19] = tested on: NCI-H23
[20] = tested on: RXF 393
[21] = tested on: HCT-116
[22] = tested on: A498
[23] = tested on: KM-20L2
[24] = tested on: SNB-19
[25] = tested on: M19-MEL
[26] = tested on: EKVX
[27] = tested on: KM12
[28] = tested on: HOP-92
[29] = tested on: M14
[30] = tested on: A549
[31] = tested on: UO-31
[32] = tested on: HL-60
[33] = tested on: MOLT-4
[34] = tested on: NCI-H522
[35] = tested on: ACHN
[36] = tested on: U-251
[37] = tested on: HOP-18
[38] = tested on: SNB-75
[39] = tested on: DLD-1
[40] = tested on: Malme-3M
[41] = tested on: LOX IMVI
[42] = tested on: SF-268
[43] = tested on: NCI-H226
[44] = tested on: SN12C
[45] = tested on: OVCAR-3
[46] = tested on: HCC 2998
[47] = tested on: CAKI-1
[48] = tested on: SK-MEL-5
[49] = tested on: SF-539
[50] = tested on: 786-0
[51] = tested on: SK-MEL-2
[52] = tested on: COLO 205
[53] = tested on: LXFL 529
[54] = tested on: OVCAR-4
[55] = tested on: HCT-15
[56] = tested on: K562
[57] = tested on: SW-620
[58] = tested on: RPMI-8226

Measured: GI50

NC(CCc1nc(-c2cccc([N+](=O)[O-])c2)cs1)C(=O)O (stereo not drawn)
inactive: [1] > 100 µM | [2] > 100 µM | [3] > 100 µM | [4] > 100 µM | [5] > 100 µM | [6] > 100 µM | [7] > 100 µM | [8] > 100 µM | [9] > 100 µM | [10] > 100 µM | [11] > 100 µM | [12] > 100 µM | [13] > 100 µM | [14] > 100 µM | [15] > 100 µM | [16] > 100 µM | [17] > 100 µM | [18] > 100 µM | [19] > 100 µM | [20] > 100 µM | [21] > 100 µM | [22] > 100 µM | [23] > 100 µM | [24] > 100 µM | [25] > 100 µM | [26] > 100 µM | [27] > 100 µM | [28] > 100 µM | [29] > 100 µM | [30] > 100 µM | [31] > 100 µM | [32] > 100 µM | [33] > 100 µM | [34] > 100 µM | [35] > 100 µM | [36] > 100 µM

CC(=O)OCC1OC(n2c(=O)n(-c3ccccc3)c(=O)c3ccccc32)C(OC(C)=O)C(OC(C)=O)C1OC(C)=O (stereo not drawn)
inactive: [1] > 100 µM | [2] > 100 µM | [37] > 100 µM | [38] > 100 µM | [39] > 100 µM | [3] > 100 µM | [40] > 100 µM | [41] > 100 µM | [4] > 100 µM | [5] > 100 µM | [6] > 100 µM | [42] > 100 µM | [43] > 100 µM | [7] > 100 µM | [8] 53.7 µM | [9] > 100 µM | [10] > 100 µM | [11] > 100 µM | [12] > 100 µM | [13] > 100 µM | [44] > 100 µM | [15] > 100 µM | [45] > 100 µM | [16] > 100 µM | [17] > 100 µM | [18] > 100 µM | [46] > 100 µM | [19] > 100 µM | [20] > 100 µM | [47] > 100 µM | [48] > 100 µM | [49] > 100 µM | [50] > 100 µM | [51] > 100 µM | [21] 96.6 µM | [22] > 100 µM | [23] > 100 µM | [24] > 100 µM | [52] > 100 µM | [25] > 100 µM | [53] > 100 µM | [26] > 100 µM | [54] > 100 µM | [27] > 100 µM | [28] > 100 µM | [56] > 100 µM | [29] > 100 µM | [30] > 100 µM | [57] > 100 µM | [31] > 100 µM | [32] > 100 µM | [33] > 100 µM | [34] > 100 µM | [35] > 100 µM | [36] > 100 µM | [58] 73.8 µM
> 100 µM: [55]
